A word on the IC50: it is the concentration needed to halve the response being measured. The low end stands for greater potency, the high end for weaker potency.

The test concerns the target TGF-beta-activated kinase 1 (MAP3K7). In words: Inhibition of TAK (unknown origin).

`COC(=O)Nc1cc(-c2cnc(OC[C@@](C)(N)CC(C)C)c(C#N)c2)ccn1` showed a 50% inhibitory concentration (IC50) of 260 nM. Take `COC(=O)Nc1cc(-c2cnc(OC[C@@](C)(N)CC(C)C)c(Cl)c2)ccn1`: the IC50 came to 120 nM.

The record behind these values is BindingDB's records for PubMed 35261239 (Bristol-Myers Squibb Company, 2022).
